Type in all cases: cell-based, Human enterovirus D68
Assay [1] has as its system four EV-D68 strains. In words: CPE inhibition assay in HeLa H1 cells, text summaries over the strains. To be noted: Enterovirus D, EVD68, all four strains, read-out: EC50 values, range over all four strains in HeLa H1 cells.
Assay [2] relates to EV-D68 strain USA-MO/18947. In words: CPE inhibition assay repeated in HeLa H1 cells. To be noted: Enterovirus D, EVD68.
For the next assay, the system named is EV-D68 strain Fermon. In words: CPE inhibition assay repeated in HeLa H1 cells. The note with it: Enterovirus D, EVD68.
In assay [3] the test system is EV-D68 strain USA-MO/18947. In words: CPE inhibition assay in RD cells. To be noted: Enterovirus D, EVD68, 120 h; RD cells, 100 CCID50 virus, 33° C., five days, strain USA-MO/18947; read-out: Mean EC50 ± SD.
Assay [4] deals with EV-D68 1962 prototype strain (Fermon). In words: CPE inhibition assay in RD cells. The note with it: Enterovirus D, EVD68, 120 h; RD cells, 100 CCID50 virus, 33° C., five days, strain Fermon; read-out: Mean EC50 ± SD.
The subject of assay [5] is EV-D68 strain USA-IL/18956. In words: CPE inhibition assay repeated in HeLa H1 cells. The note with it: Enterovirus D, EVD68.
In the next assay the test system is EV-D68 Fermon strain. In words: CPE inhibition assay over a range of virus doses. The note with it: Enterovirus D, EVD68; 100-fold virus dose range; strain not given; read-out: EC50 variation over a range of virus doses. The method, then: Antiviral activity was assessed in a homogeneous cell-based assay that measured inhibition of viral cytopathic effect in human rhabdomyosarcoma cells (RD; ATCC CCL-136). The viruses included three representative EV-D68 strains from the 2014 outbreak (USA-MO/18947, USA-MO/18949, USA-IL/18956) (Brown et al. 2014. Seven Strains of Enterovirus D68 Detected in the United States during the 2014 Severe Respiratory Disease Outbreak. Genome Announc 2:e01201-01214), as well as the 1962 prototype strain (Fermon) (Schieble et al. 1967. A probable new human picornavirus associated with respiratory diseases. Am J Epidemiol 85:297-310). For the CPE inhibition assay, half-log10 dilutions of drug compound (10 μM to 0.001 μM) were combined with 100 CCID50 (50% cell culture infectious dose) of virus and added to monolayers of RD cells (5000 cells per well) in 384-well, white, flat-bottom microplates. Plates were incubated at 33° C. and 5% CO2 for five days, and cell viability was assessed using ATPLite® (Perkin Elmer, Waltham, Mass.) by adding 15 μL of cell lysis buffer and then 15 μL of substrate solution, following the manufacturer's recommendations.
In both studies, the methods were somewhat different from our approach. […] For the other compounds tested, similar EC50 values were observed across this same dose range. […]

Assay [6] deals with EV-D68 strain USA-IL/18956. In words: CPE inhibition assay in RD cells. To be noted: Enterovirus D, EVD68, 120 h; RD cells, 100 CCID50 virus, 33° C., five days, strain USA-IL/18956; read-out: Mean EC50 ± SD.
Assay [7] deals with four EV-D68 strains. In words: microbe, parasite or virus in culture. The note with it: RD cells.
The test system of assay [8] is EV-D68 strain USA-MO/18949. In words: CPE inhibition assay in RD cells. The note with it: Enterovirus D, EVD68, 120 h; RD cells, 100 CCID50 virus, 33° C., five days, strain USA-MO/18949; read-out: Mean EC50 ± SD.
Assay [9] deals with EV-D68 strain USA-MO/18949. In words: CPE inhibition assay repeated in HeLa H1 cells. The note with it: Enterovirus D, EVD68.

Consider `Cc1cc(CCCOc2c(C)cc(-c3noc(C(F)(F)F)n3)cc2C)on1` [Pleconaril, pleconaril], for which the half-maximal effective concentration (EC50) in the assay with four EV-D68 strains [1] was 130 to 360 nM; in assay [2], 131 nM; in the assay on EV-D68 strain Fermon, 360 nM; in [3] it was 4440 ± 550 nM; in [4], 380 ± 10 nM; in assay [5] it was 321 nM. Also, the EC50 was 300 to 500 nM in the assay on EV-D68 Fermon strain, 6110 ± 1050 nM in [6], 6090 ± 260 nM in assay [8] and 358 nM in assay [9]. The “concentrations at which activity against the 2014 strains was detected” value with four EV-D68 strains [7] (2014 strains) was “greater than 4 μM”. Moreover, the “EC50 against the 2014 strains relative to the Fermon strain” value with four EV-D68 strains [7] (higher against 2014 strains) is “about 10 fold”.
